Structures are written as SMILES.

The values below come from US20240246942A1, “KINASE INHIBITORS FOR THE TREATMENT OF NEURODEGENERATIVE DISEASES” (priority 2020, published 2024).

One series addresses CYP2C9 (Homo sapiens, UniProt P11712). The series can be described thus: P450 cocktail inhibition assay, CYP2C9. The series is classed as in vitro ADME. The conditions noted are these: at 10 μM. The procedure:
(§1) P450s inhibition for four major isoforms are evaluated using a cocktail inhibition assay where the metabolism of specific marker substrate (CYP1A2 phenaceten […] to acetaminophen); CYP2C9, tolbutamide hydroxylation to hydrocytolbutamide; CYP2D6, bufuralol hydroxylation to […]; and CYP3A4, midazolam hydroxylation to 1′-Hydroxymidazolam) in the presence or absence of 10 TM probe compound is evaluated. The concentration of each marker substrate is approximately its Km. […] Specific inhibitors for each isoform are included in each run to validate the system.

The subject of series [1] is JNK3-dependent phosphorylation of APP at T668. The series can be described thus: JNK3 inhibition assay in rat primary neuron cultures (Western blot, anisomycin activated). Format: cell-based. The conditions noted are these: even at a concentration as low as 10 nM; FIGS. 5A-5C. The procedure:
Both hippocampal and cortical neurons were isolated from E18 rat embryos and cultured in NbActive 1 medium that contains B27 (Brainbits, LLC) plus penicillin/streptomycin (Life Technologies). At the 7th day in culture, cells were treated with different concentrations of inhibitors diluted in DMSO and 80 ng/ml Anisomycin for 30 min to activate the endogenous JNK3. At the end of incubation time, whole cell lysates were prepared in RIPA buffer containing 50 mM Tris (pH 8.0), 150 mM NaCl, 2 mM EDTA, 1% NP-40, 0.5% deoxycholate supplemented with 10 mM Na pyrophosphate, 1 mM sodium orthovanadate, 25 mM NaF, 10 μg/ml leupeptin, 10 μg/ml aprotinin, 1 mM β-glycerophosphate, and 2 mM PMSF. The lysates were subjected to Western blotting to detect whether inhibitors block JNK3-dependent phosphorylation of APP at T668 and c-jun at S73. Phospho-APP^T668, phosphor-c-jun^S73, APP, and c-jun antibodies were from Cell Signaling Technology.
A general note: A western blot detects proteins with antibodies after separation by electrophoresis.

The target in the next series is T1, CYP1A2 (Homo sapiens, UniProt P05177).
T1 sequence (P05177 1-516): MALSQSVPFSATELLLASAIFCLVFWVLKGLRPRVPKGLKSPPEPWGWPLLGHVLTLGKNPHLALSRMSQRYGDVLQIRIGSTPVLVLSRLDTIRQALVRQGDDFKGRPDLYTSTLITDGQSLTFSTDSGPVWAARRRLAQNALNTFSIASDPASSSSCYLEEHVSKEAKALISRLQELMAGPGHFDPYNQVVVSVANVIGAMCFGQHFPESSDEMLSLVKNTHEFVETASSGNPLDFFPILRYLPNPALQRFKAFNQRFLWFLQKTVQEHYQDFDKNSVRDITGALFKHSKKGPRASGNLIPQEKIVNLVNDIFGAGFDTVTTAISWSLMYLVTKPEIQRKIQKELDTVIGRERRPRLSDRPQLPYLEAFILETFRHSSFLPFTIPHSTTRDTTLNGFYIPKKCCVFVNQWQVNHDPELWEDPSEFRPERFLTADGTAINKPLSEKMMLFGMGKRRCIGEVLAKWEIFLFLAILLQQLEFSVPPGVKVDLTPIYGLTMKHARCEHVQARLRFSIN
The series can be described thus: P450 cocktail inhibition assay, CYP1A2. Format: in vitro ADME. The following applies: at 10 μM. The method, then:
as §1

A short description of series [2]: Microsomal stability, human. The series is classed as in vitro ADME. The conditions noted are these: human microsomes.
For a further series, the system named is SHSY5Y cells. The series can be described thus: MTT cytotoxicity assay.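 Further: compounds tested at 10 µM final concentration.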 The series is classed as cell-based. More on the design: dose or concentration left out as unconfirmed. The conditions noted are these: 48 hrs, average of ≥2 experiments. The procedure:
A day before the assay, cells were plated at 50,000/well in 96 well plates in the culture medium. […] After the incubation, cells were subjected to MTT assay using Vybrant MTT Cell Proliferation kit as directed by the vendor (Life Technologies).
In general terms: Tetrazolium assays rely on reduction of a dye to a coloured formazan, in cell work by metabolically active cells.

A further series has as its target CYP2D6 (Homo sapiens, UniProt P10635). The series can be described thus: P450 cocktail inhibition assay, CYP2D6. Format: in vitro ADME. The conditions noted are these: at 10 μM. The method, then:
as §1

The nature of series [3]: Microsomal stability, mouse. Format: in vitro ADME. The following applies: mouse microsomes.
The next series has as its target CYP3A4 (Homo sapiens, UniProt P08684). The series can be described thus: P450 cocktail inhibition assay, CYP3A4. Format: in vitro ADME. The conditions noted are these: at 10 μM. The method, then: as §1
The next series has as its target JNK3α1 (Homo sapiens, UniProt P53779). The series is classed as biochemical. The following applies: compared to 16. The procedure: A 10-point titration of all compounds was carried out in 3-fold dilutions from 10 μM to 0.5 nM.

CYP2C9, sequence (P11712 whole entry, canonical isoform): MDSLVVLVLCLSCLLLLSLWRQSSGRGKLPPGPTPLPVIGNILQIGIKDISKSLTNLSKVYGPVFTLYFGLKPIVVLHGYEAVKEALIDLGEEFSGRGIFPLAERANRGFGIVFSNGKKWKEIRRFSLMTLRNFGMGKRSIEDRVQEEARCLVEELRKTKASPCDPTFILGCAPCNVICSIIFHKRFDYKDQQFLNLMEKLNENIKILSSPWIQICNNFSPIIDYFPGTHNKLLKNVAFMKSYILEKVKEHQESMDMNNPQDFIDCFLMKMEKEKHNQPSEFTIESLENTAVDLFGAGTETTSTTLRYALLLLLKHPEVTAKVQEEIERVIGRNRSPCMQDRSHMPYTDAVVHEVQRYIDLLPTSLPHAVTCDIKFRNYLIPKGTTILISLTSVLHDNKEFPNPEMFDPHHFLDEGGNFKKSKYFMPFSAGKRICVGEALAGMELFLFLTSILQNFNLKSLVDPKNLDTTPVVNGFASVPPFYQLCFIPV
CYP2D6, sequence (P10635 whole entry): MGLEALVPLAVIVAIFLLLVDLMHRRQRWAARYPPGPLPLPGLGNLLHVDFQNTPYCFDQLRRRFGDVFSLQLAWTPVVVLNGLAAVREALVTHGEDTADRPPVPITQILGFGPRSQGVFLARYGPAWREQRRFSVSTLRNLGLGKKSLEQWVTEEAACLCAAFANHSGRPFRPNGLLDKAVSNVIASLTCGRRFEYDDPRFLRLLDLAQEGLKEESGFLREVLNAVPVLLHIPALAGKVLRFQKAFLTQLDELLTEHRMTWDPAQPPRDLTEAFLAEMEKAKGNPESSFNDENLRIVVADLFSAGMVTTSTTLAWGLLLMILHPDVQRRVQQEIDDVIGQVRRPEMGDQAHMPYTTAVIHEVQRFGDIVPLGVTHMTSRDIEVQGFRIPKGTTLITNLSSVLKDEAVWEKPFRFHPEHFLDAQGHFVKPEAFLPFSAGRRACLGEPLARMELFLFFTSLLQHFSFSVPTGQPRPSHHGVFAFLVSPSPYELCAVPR
CYP3A4, sequence (P08684 whole entry): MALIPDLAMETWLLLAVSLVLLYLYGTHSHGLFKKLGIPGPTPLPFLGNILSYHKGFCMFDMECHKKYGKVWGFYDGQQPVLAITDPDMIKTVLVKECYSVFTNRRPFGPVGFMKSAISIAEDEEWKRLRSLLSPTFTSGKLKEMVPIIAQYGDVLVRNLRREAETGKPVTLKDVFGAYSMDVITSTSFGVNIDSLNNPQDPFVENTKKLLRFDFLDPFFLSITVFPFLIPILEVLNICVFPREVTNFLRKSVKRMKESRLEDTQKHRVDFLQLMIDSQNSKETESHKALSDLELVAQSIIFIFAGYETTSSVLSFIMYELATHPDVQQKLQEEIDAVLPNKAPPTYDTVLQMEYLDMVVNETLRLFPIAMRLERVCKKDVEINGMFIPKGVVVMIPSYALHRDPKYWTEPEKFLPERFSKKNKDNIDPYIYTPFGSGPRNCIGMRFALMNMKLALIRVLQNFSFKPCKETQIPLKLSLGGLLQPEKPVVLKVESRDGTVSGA
JNK3α1, sequence (P53779 1-422 isoform P53779-2): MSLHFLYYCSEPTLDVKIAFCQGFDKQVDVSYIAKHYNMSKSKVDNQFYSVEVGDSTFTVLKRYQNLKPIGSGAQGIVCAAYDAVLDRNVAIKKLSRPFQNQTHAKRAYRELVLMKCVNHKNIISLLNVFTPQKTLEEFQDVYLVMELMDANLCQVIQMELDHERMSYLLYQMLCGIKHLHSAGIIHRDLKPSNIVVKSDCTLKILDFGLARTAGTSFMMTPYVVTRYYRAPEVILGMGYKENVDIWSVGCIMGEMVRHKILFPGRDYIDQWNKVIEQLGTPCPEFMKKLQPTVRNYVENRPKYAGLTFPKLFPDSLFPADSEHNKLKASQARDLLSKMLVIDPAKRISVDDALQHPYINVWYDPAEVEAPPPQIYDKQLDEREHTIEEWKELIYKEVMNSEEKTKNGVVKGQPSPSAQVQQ

With `O=C(Nc1cnn(-c2csc(C(=O)NC3COC3)c2)c1)Nc1ccc(F)cc1Cl` [Compound 26, 4-(4-(3-(2-chloro-4-fluorophenyl)ureido)-1H-pyrazol-1-yl)-N-(oxetan-3-yl)thiophene-2-carboxamide], on CYP2C9, the “CYP-450 % inh. 2C9” value worked out at 47%. Further, in series [1], the “inhibition of phosphorylation of residue T668 of APP” value is given as “significantly inhibited”. Further, the “CYP-450 % inh. 1A2” value at CYP1A2 is given as 38%. Further, the “Mic. stability t1/2 Human” value in series [2] is recorded as >120 min. For the same molecule, the MTT cell viability with SHSY5Y cells is given as 104%. On CYP2D6, the “CYP-450 % inh. 2D6” value is 30%. In series [3], the “Mic. stability t1/2 Mouse” value came out at 68 min. The “CYP-450 % inh. 3A4” value at CYP3A4 was −5%.

Regarding `Cc1sc(C(=O)N[C@@H]2CCOC2)cc1-n1cc(NC(=O)Nc2c(F)cccc2Cl)cn1` [Compound 28, (R)-4-(4-(3-(2-chloro-6-fluorophenyl)ureido)-1H-pyrazol-1-yl)-5-methyl-N-(tetrahydrofuran-3-yl)thiophene-2-carboxamide], the “CYP-450 % inh. 2C9” value at CYP2C9 stood at 35%. In series [1], the “inhibition of phosphorylation of residue T668 of APP” value is reported as “significantly inhibited”. At CYP1A2, the “CYP-450 % inh. 1A2” value was 34%. Moreover, the “Mic. stability t1/2 Human” value in series [2] is 40 min. Moreover, the MTT cell viability with SHSY5Y cells is 114%. Moreover, on CYP2D6, the “CYP-450 % inh. 2D6” value is on record as 17%. In series [3], the “Mic. stability t1/2 Mouse” value came out at 38 min. The “reduction in JNK3 inhibitions” value on JNK3α1 was 7 fold. The “CYP-450 % inh. 3A4” value on CYP3A4 stood at 26%.
